Paper PMC10901353, “Identification of a potent and selective LAPTc inhibitor by RapidFire-Mass Spectrometry, with antichagasic activity” (PLOS Neglected Tropical Diseases, 2024)
“And” between values parts separate entries of the source, which are not always exact repeats. Equal entries are not always repeated. Where two headings read alike, the source gives them in different places.

Legend:
[1] = system: PfA-M17 (M17 LAP from Plasmodium falciparum); settings: cited from earlier work
[2] = target: T1, LAPTc (acidic M17 leucyl-aminopeptidase from T. cruzi) (Trypanosoma cruzi, UniProt V5BWE3); experiment: Dose-response studies for LAPTc inhibition by RapidFire-MS; format: biochemical; settings: for Emax: read-out: Maximum Effect; for Hit Confirmation: whether primary screen hit confirmed in potency experiment
T1 sequence (V5BWE3 entry or part of it): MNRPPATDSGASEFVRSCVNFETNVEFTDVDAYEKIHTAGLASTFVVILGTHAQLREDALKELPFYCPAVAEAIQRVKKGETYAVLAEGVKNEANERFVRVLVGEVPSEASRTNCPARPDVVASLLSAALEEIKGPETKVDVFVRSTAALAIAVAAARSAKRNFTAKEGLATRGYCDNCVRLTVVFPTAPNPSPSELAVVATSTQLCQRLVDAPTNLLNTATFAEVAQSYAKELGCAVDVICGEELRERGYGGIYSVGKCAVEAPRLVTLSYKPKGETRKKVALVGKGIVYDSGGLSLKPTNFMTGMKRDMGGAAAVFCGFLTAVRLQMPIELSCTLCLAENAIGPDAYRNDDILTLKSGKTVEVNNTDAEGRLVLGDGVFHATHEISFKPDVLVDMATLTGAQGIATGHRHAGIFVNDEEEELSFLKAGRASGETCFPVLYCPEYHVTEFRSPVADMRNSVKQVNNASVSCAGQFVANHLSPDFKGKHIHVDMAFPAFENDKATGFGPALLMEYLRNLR
Protocol: (§1) This assay was previously described. The assay was performed in 384-well clear F-bottom polypropylene plates with a final reaction volume of 15 μL. The reaction mixture contained 7.5 μL LAPTc in 50 mM Tris-HCl, pH 7.5, 0.005% NP-40 and 7.5 μL LSTVIVR peptide substrate (Cambridge Research Biochemicals, Billingham, UK) in the same buffer was added to start the reaction. The reaction was performed at room temperature for 40 min and then stopped with 85 μL 1% formic acid containing 0.15 mg/mL STVIVR* internal standard (Cambridge Research Biochemicals, Billingham, UK).
To generate half-maximum inhibitory concentration (IC50) data for LAPTc, 10-point dose-response curves with 100 μM as highest concentration and 1:2 dilution in DMSO (0.195–100 μM range) were prepared in 384 well plates. All other experimental conditions were as described above. All IC50 curve fitting was performed by four-parameter logistic dose-response curve fit using ActivityBase XE (IDBS). At least three replicates were generated for each hit compound.

[3] = system: HepG2 cells; experiment: Cytotoxicity assay on human HepG2 cells (resazurin); format: cell-based; settings: for Max Effect (HepG2) / pEC50 (HepG2): individual replicates
[4] = as above; format: cell-based; settings: human, 72 h
[5] = target: T1, LAPTc (acidic M17 leucyl-aminopeptidase from T. cruzi); experiment: High-throughput single point screening for LAPTc inhibitors by RapidFire-MS; format: biochemical; settings: primary screen, 30 μM, single replicate; read-out: Percent Inhibition
Protocol: as §1
Single point screening of a library of 3329 compounds was performed in 384-well clear plates (Greiner 781101) at room temperature. Test compounds (45 nL in DMSO) were transferred to assay plates by an ECHO 550 acoustic dispenser (Labcyte). LAPTc was tested at 3 nM with 150 μM (approximately the value of the apparent Michaelis-Menten constant -appKM- [16]) LSTVIVR peptide substrate in a 40 min reaction. Before addition of substrate, LAPTc was preincubated with 45 nL compounds or DMSO for 15 min. Compounds, dissolved in DMSO, were tested at 30 μM. Controls without compound (the same volume of DMSO, 0% inhibitory effect) and without enzyme and compound (100% inhibitory effect) were prepared. The experiment was performed without replicates. The remaining experimental conditions were maintained as previously described. Data were processed and analysed through ActivityBase XE (IDBS). The selection criterion for hits in this single point screen was percent inhibition larger than the mean plus three standard deviations. All primary screening data are available in ChEMBL (see Data Availability statement).

[6] = Cytotoxicity against infected Vero host cells in T. cruzi intracellular assay; format: cell-based, African green monkey; design: Max Effect (Vero): unit not given here; settings: African green monkey, infected Vero host cells, 96 h, read-out: pCC50 (Vero) +/- StDev (converted)
Protocol: (§2) Briefly, these cells were maintained at 37°C and 5% CO2 in MEM supplemented with 10% FCS, sub-culturing every 2–3 days at a ratio of 1:5 after 5 min treatment with Trypsin-EDTA (Gibco).
(§3) This assay was performed as described with the only modification that treatment was 96 h instead of 72 h. Briefly, Vero cells were infected overnight with tissue culture derived T. cruzi trypomastigotes in T225 tissue culture flasks (MOI 5). Any remaining free trypomastigotes were washed away with serum free MEM and the infected Vero cells were harvested by trypsinisation. Compounds (250 nL in DMSO) were dispensed using LabCyte ECHO (Beckman Coulter Life Sciences, USA) into each well of Corning black flat bottomed 384-well plates (Corning, USA). […] The infected Vero cells were then plated into the plates containing the compounds, at 4,000 cells per well in MEM media with 1% FCS. […] The plates were imaged on a Perkin Elmer Operetta high-content imaging system using a 20× objective. Images were analyzed using the Columbus system (Perkin Elmer). The algorithm first identified the Vero nuclei followed by demarcation of the cytoplasm and identification of intracellular amastigotes. This algorithm reported percent infected Vero cell and total number of Vero cells. All potency determinations were carried out in at least three independent replicates and are reported as pEC50 +/- standard deviation. pEC50 = -log(EC50[M]).

[7] = system: Vero cells; experiment: as above; format: cell-based, African green monkey; design: Max Effect (Vero): unit not given here; settings: for Max Effect (Vero) / pEC50 (Vero): individual replicates
Protocol: as §2, §3

[8] = system: intracellular T. cruzi amastigotes; experiment: T. cruzi intracellular assay (high-content imaging, infected Vero cells); format: cell-based, Trypanosoma cruzi; design: Max Effect (T. cruzi): unit not given here; settings: for EC50 / Emax: Trypanosoma cruzi, Vero; for Emax: read-out: Max Effect (T. cruzi)
Protocol: T. cruzi parasite, TcI strain Silvio X10/7 subclone A1 [34] was maintained in culture as previously described. Parasites were maintained as amastigotes by passaging on a weekly basis in Vero cells. Culture maintenance infections were carried out at an MOI (multiplicity of infection) of 1.5.
This assay was performed as described with the only modification that treatment was 96 h instead of 72 h. Briefly, Vero cells were infected overnight with tissue culture derived T. cruzi trypomastigotes in T225 tissue culture flasks (MOI 5). Any remaining free trypomastigotes were washed away with serum free MEM and the infected Vero cells were harvested by trypsinisation. Compounds (250 nL in DMSO) were dispensed using LabCyte ECHO (Beckman Coulter Life Sciences, USA) into each well of Corning black flat bottomed 384-well plates (Corning, USA). […] The infected Vero cells were then plated into the plates containing the compounds, at 4,000 cells per well in MEM media with 1% FCS. After 96 h incubation at 37°C in presence of 5% CO2, the plates were fixed with 4% formaldehyde for 20 min at room temperature and stained with 5 μg/mL Hoechst 33342. The plates were imaged on a Perkin Elmer Operetta high-content imaging system using a 20× objective. Images were analyzed using the Columbus system (Perkin Elmer). The algorithm first identified the Vero nuclei followed by demarcation of the cytoplasm and identification of intracellular amastigotes. This algorithm reported percent infected Vero cell and total number of Vero cells. All potency determinations were carried out in at least three independent replicates and are reported as pEC50 +/- standard deviation. pEC50 = -log(EC50[M]).

[9] = Initial hit confirmation, single replicate
[10] = Initial hit confirmation, single replicate, read-out: pIC50 (converted)
[11] = Replicate data generation, individual replicates
[12] = Replicate data generation, individual replicates, read-out: pIC50 (converted)
[13] = average of four independent replicates, read-out: pIC50 +/- StDev (LAPTc) (converted)
[14] = HepG2 cells, two independent experiments, read-out: pCC50 (HepG2) (converted)
[15] = Vero cells infected with T. cruzi
[16] = 96 h, four independent experiments, read-out: pEC50 (T. cruzi) +/- StDev (converted)
[17] = individual replicates, read-out: pEC50 (T. cruzi) (converted)

Compound | Hill Slope [2, 9] | Emax [2, 9] [%] | IC50 [2, 10] [µM] | Hill Slope [2, 11] | Maximum Effect [2, 11] | Emax [2, 11] [%] | IC50 [2, 12] | IC50 [2, 13] [µM] | Hit Confirmation [2] | Max Effect (HepG2) [3] | pEC50 (HepG2) [3] | CC50 at 72 h [4, 14] [µM] | inhibition at 30 µM [5] [%] | CC50 at 96 h [6, 15] [µM] | Max Effect (Vero) [7] | EC50 [8, 16] [µM] | Emax ([8]; individual replicates) [%] | EC50 [8, 17] [µM] | Max Effect (T. cruzi) ([8]; individual replicates) | pEC50 (Vero) [7] | other results
NC(CCc1ccccc1)P(=O)(O)CC(Cc1ccccc1)C(=O)O (stereo not drawn) [Co4] |  |  |  |  |  |  |  |  |  |  |  |  |  |  |  |  |  |  |  |  | Ki [1]: 0.013 µM
O=C(NO)C(NC(=O)C12CC3CC(CC(C3)C1)C2)c1ccc(-c2cc(F)c(F)c(F)c2)cc1 (stereo not drawn) [Compound 6k] |  |  |  |  |  |  |  |  |  |  |  |  |  |  |  |  |  |  |  |  | Ki [1]: 0.0289 µM
COc1ccc(CC(=O)Nc2nc(-c3ccccn3)cs2)c(OC)c1 [Compound 12] | 2.1 | 84 | 20 | 1.0 and 0.9 and 1.3 | 67% and 73% | 68 | 31.6 µM and 20 µM | 25.1 | confirmed | 11 and 10 | < 4.0 | > 100 | 42 | 1 | 46 and 49 and 51 | 7.08 | 98 | 7.94 | 100 and 94 |  | pEC50 (T. cruzi) ([8]; individual replicates): 5.2
c1ccc(Cc2ccc(OCCn3ccnc3)cc2)cc1 [Compound 13] | 1.3 | 77 | 31.6 | 0.9 and 1.3 and 1.5 | 74% | 67 | 31.6 µM and 15.8 µM | 21.9 | confirmed | 81 and 82 | 4.4 | 43.7 | 41 | 5.01 | 95 and 94 and 89 and 87 | 2.14 | 94 | 1.58 | 97 and 84 and 87 | 5.3 and 5.4 and 5.2 | Selectivity window based on the HepG2 data ([3]; T. cruzi vs HepG2): 20 fold; CC50 at 72 h ([4]; HepG2 cells, read-out: CC50 (HepG2)): 43 µM; Selectivity index (fold window Tc/Vero) [7]: 2.3 fold; EC50 ([8]; 96 h, read-out: EC50 (T. cruzi amastigotes)): 2 µM; pEC50 (T. cruzi) ([8]; individual replicates): 5.6 and 5.7
N#CC(=Cc1cn(Cc2ccc(C(=O)O)o2)c2ccccc12)c1nc2ccccc2[nH]1 [Compound 15] | 1.5 | 92 | 12.6 | 1.7 and 1.4 and 1.5 | 87% | 88 | 25.1 µM and 31.6 µM | 22.9 | confirmed | 2.23 and 3 | < 4.0 |  | 39 |  | 63 and 36 and 65 and 66 |  | 24 | > 50.1 | 19 and 38 | 4.4 and < 4.3 and 4.5 and 4.3 | CC50 at 72 h ([4]; two independent experiments, read-out: pCC50 (HepG2) (converted)): > 100 µM; CC50 at 96 h [6]: 38 µM; EC50 ([8]; 96 h, read-out: pEC50 (T. cruzi) +/- StDev (converted)): > 50.1 µM
CCCS(=O)(=O)c1ccc(NS(=O)(=O)c2sc3ccc(Cl)cc3c2C)cc1 [Compound 24] | 2.4 | 96 | 31.6 | 2.4 and 2.3 and 2.6 |  | 99 | 12.6 µM and 15.8 µM | 17.8 | confirmed | -2 and -0.697 | < 4.0 | > 100 | 29 | 11.5 | 92 and 90 and 88 and 91 | 14.8 |  |  | 100 and 75 and 105 and 84 | 4.9 and 5.0 | pEC50 (T. cruzi) ([8]; individual replicates): 4.8 and 4.7 and 5.1
NC(=O)C1Cc2ccccc2CN1C(=O)Cc1cn2ccsc2n1 (stereo not drawn) [Compound 28] | 0.9 | 87 | 10 | 1.5 and 1.4 | 72% and 74% | 73 | 39.8 µM and 50.1 µM | 30.2 | confirmed | 2.59 and 4.33 | < 4.0 | > 100 | 27 | > 50.1 | 32 and 37 and 15 and 16 | > 50.1 | 27 | > 50.1 | 21 and 20 and 35 | < 4.3 | 
